{"source": "paper PMC10252594", "about": "(Cancers, 2023)", "key": {"22Rv1": {"test_system": "22Rv1", "assay": "PCa cell viability proliferation screening (MTS), 22Rv1", "assay_type": "cell-based", "conditions": "Homo sapiens, 72 h, 22Rv1, AR positive, three days", "method": "(§1) VCaP (4 × 10^4 cells/well) were seeded in 96-well plates in DMEM media supplemented with 10% fetal bovine serum (FBS), penicillin, streptomycin, and sodium pyruvate. 22Rv1 cells (2 × 10^3 cells/well) and LAPC-4 cells (6 × 10^3 cells/well) were seeded in 96-well plates in RPMI media supplemented with 10% FBS, penicillin, streptomycin, and sodium pyruvate. The cells were incubated at 37 °C in a 5% CO2 humidified atmosphere for 24 h before treatment with multiple concentrations of RM-581 dissolved in dimethyl sulfoxide (DMSO). The concentrations used were between 0.01 μM and 50 μM. Treatment lasted for 3 days for all the cell lines except VCaP cells, which were treated for 7 days due to slower proliferation rates. At the end of the assay, 20 μL of MTS (Cell Titer 96 Aqueous, Promega, Nepean, ON, Canada) were added to each well, and the mixture was incubated for 4 h at 37 °C. The plates were subsequently analyzed at 490 nm using a Tecan M-200 microplate reader (Männedorf, Switzerland)."}, "LAPC-4": {"test_system": "LAPC-4", "assay": "PCa cell viability proliferation screening (MTS), LAPC-4", "assay_type": "cell-based", "conditions": "Homo sapiens, LAPC4, 72 h, LAPC-4, AR positive, three days", "method": "as §1"}, "[1]": {"assay": "Toxicity during LAPC-4 xenograft protocol (signs, body weight, histopathology)", "assay_type": "in vivo, mice", "conditions": "28 days", "source_text": "Tissue samples from xenograft experiments were fixed in neutral buffered 10% formalin and processed for routine paraffin embedding. Tissue sections (3 µm) were stained with hematoxylin and eosin (HE) and histologically observed by an independent pathologist. Digital images at 20× magnification of each slide were obtained using the slide scanner NanoZoomer 2.0-HT (Hamamatsu, Bridgewater, NJ, USA). Whole-section images were visualized using the software NDP View (Hamamatsu, Bridgewater, NJ, USA)."}, "LAPC-4 cells [2]": {"test_system": "LAPC-4 cells", "assay": "Gene expression study by qPCR", "assay_type": "cell-based, human", "conditions": "RM-581 5 µM or atorvastatin 10 µM, CTL fixed at 1.0", "method": "LAPC-4 cells (3 × 10^5) were treated with RM-581 (1, 2, and 5 µM) at different times (6, 18, 24, and 36 h) and the expression of various genes was determined as previously reported. Primer sequences used for the analysis of each gene are reported in Table S3 (Supplementary Materials)."}, "PC-3": {"test_system": "PC-3", "set-up": "method as in PMID 34681843", "conditions": "PC-3, AR negative, three days, MTS; cited from earlier work"}, "LAPC-4 cells [3]": {"test_system": "LAPC-4 cells", "assay": "LAPC-4 cell viability proliferation and combination index assays (MTS, 6 days)", "assay_type": "cell-based", "conditions": "Homo sapiens, LAPC4, 144 h, LAPC-4, six days of treatment; read-out: IC50, mean of three experiments (Figure 2A)"}, "PC-3 xenograft": {"test_system": "PC-3 xenograft", "set-up": "method as in PMID 34681843", "conditions": "cited from earlier work"}}, "note": "Marks after values point to notes of the source that are not given here."}
{"smiles": "C#C[C@]1(O)CC[C@H]2[C@@H]3CCc4cc(OC)c(N5CCN(C(=O)[C@@H]6CCCN6C(=O)c6ccc7ccccc7n6)CC5)cc4[C@H]3CC[C@@]21C", "note": "[RM-581]", "values": [{"measurement": "IC50", "setting": "22Rv1", "value": 1.38, "unit": "µM"}, {"measurement": "IC50", "setting": "LAPC-4", "value": 0.56, "unit": "µM"}, {"measurement": "signs of toxicity during xenograft protocol", "setting": "[1]; nude mice, 3, 10, 30 mg/kg PO", "value": "no signs of apparent toxicity"}, {"measurement": "body weight of treated vs untreated mice", "setting": "[1]; nude mice", "value": "no significant difference"}, {"measurement": "histology of liver, kidney and prostate (HE)", "setting": "[1]; nude mice", "value": "tissue morphology was not affected"}, {"measurement": "ACAT1 mRNA expression", "setting": "LAPC-4 cells [2]; 6 h", "value": "0.7 *"}, {"measurement": "ACLY mRNA expression", "setting": "LAPC-4 cells [2]; 6 h", "value": 0.8}, {"measurement": "FASN mRNA expression", "setting": "LAPC-4 cells [2]; 6 h", "value": 1.0}, {"measurement": "HMGCR mRNA expression", "setting": "LAPC-4 cells [2]; 6 h", "value": "1.9 **"}, {"measurement": "HMGCS1 mRNA expression", "setting": "LAPC-4 cells [2]; 6 h", "value": "2.7 **"}, {"measurement": "LDLR mRNA expression", "setting": "LAPC-4 cells [2]; 6 h", "value": 1.4}, {"measurement": "MVD mRNA expression", "setting": "LAPC-4 cells [2]; 6 h", "value": "2.7 **"}, {"measurement": "MVK mRNA expression", "setting": "LAPC-4 cells [2]; 6 h", "value": 1.2}, {"measurement": "SCD1 mRNA expression", "setting": "LAPC-4 cells [2]; 6 h", "value": 0.7}, {"measurement": "ACAT1 mRNA expression", "setting": "LAPC-4 cells [2]; 18 h", "value": 0.9}, {"measurement": "ACLY mRNA expression", "setting": "LAPC-4 cells [2]; 18 h", "value": "0.4 **"}, {"measurement": "FASN mRNA expression", "setting": "LAPC-4 cells [2]; 18 h", "value": "0.5 **"}, {"measurement": "HMGCR mRNA expression", "setting": "LAPC-4 cells [2]; 18 h", "value": 1.2}, {"measurement": "HMGCS1 mRNA expression", "setting": "LAPC-4 cells [2]; 18 h", "value": "3.3 **"}, {"measurement": "LDLR mRNA expression", "setting": "LAPC-4 cells [2]; 18 h", "value": "1.8 **"}, {"measurement": "MVD mRNA expression", "setting": "LAPC-4 cells [2]; 18 h", "value": "1.8 **"}, {"measurement": "MVK mRNA expression", "setting": "LAPC-4 cells [2]; 18 h", "value": 1.6}, {"measurement": "SCD1 mRNA expression", "setting": "LAPC-4 cells [2]; 18 h", "value": 0.8}, {"measurement": "ACAT1 mRNA expression", "setting": "LAPC-4 cells [2]; 24 h", "value": 1.1}, {"measurement": "ACLY mRNA expression", "setting": "LAPC-4 cells [2]; 24 h", "value": 0.9}, {"measurement": "FASN mRNA expression", "setting": "LAPC-4 cells [2]; 24 h", "value": "0.6 *"}, {"measurement": "HMGCR mRNA expression", "setting": "LAPC-4 cells [2]; 24 h", "value": "2.6 **"}, {"measurement": "HMGCS1 mRNA expression", "setting": "LAPC-4 cells [2]; 24 h", "value": "2.4 **"}, {"measurement": "LDLR mRNA expression", "setting": "LAPC-4 cells [2]; 24 h", "value": "2.6 **"}, {"measurement": "MVD mRNA expression", "setting": "LAPC-4 cells [2]; 24 h", "value": "2.1 **"}, {"measurement": "MVK mRNA expression", "setting": "LAPC-4 cells [2]; 24 h", "value": 1.0}, {"measurement": "SCD1 mRNA expression", "setting": "LAPC-4 cells [2]; 24 h", "value": "2.5 **"}, {"measurement": "ACAT1 mRNA expression", "setting": "LAPC-4 cells [2]; 36 h", "value": 1.2}, {"measurement": "ACLY mRNA expression", "setting": "LAPC-4 cells [2]; 36 h", "value": 0.9}, {"measurement": "FASN mRNA expression", "setting": "LAPC-4 cells [2]; 36 h", "value": "0.6 *"}, {"measurement": "HMGCR mRNA expression", "setting": "LAPC-4 cells [2]; 36 h", "value": "2.5 **"}, {"measurement": "HMGCS1 mRNA expression", "setting": "LAPC-4 cells [2]; 36 h", "value": "2.0 **"}, {"measurement": "LDLR mRNA expression", "setting": "LAPC-4 cells [2]; 36 h", "value": "2.5 **"}, {"measurement": "MVD mRNA expression", "setting": "LAPC-4 cells [2]; 36 h", "value": "1.6 **"}, {"measurement": "MVK mRNA expression", "setting": "LAPC-4 cells [2]; 36 h", "value": 1.0}, {"measurement": "SCD1 mRNA expression", "setting": "LAPC-4 cells [2]; 36 h", "value": "3.5 **"}, {"measurement": "IC50", "setting": "PC-3", "value": 1.2, "unit": "µM"}, {"measurement": "IC50", "setting": "LAPC-4 cells [3]", "value": "0.43 ± 0.13", "unit": "µM"}, {"measurement": "effective oral dose for tumor regression", "setting": "PC-3 xenograft; PC-3 xenograft, PO", "value": 60, "unit": "mg/kg"}, {"measurement": "FA and cholesterol in tumors", "setting": "PC-3 xenograft; tumors from PC-3 xenografts", "value": "significant decrease"}]}
